Measurements from patent US20250101023A1, “HETEROARYL DERIVATIVE AND USES THEREOF” (IUCF-HYU (INDUSTRY-UNIVERSITY COOPERATION FOUNDATION …, priority 2022, published 2025).

Columns and labels:
CDK12/CyclinK = CDK12/CyclinK (Homo sapiens (Human), UniProt Q9NYV4); assay: CDK12/cyclinK enzyme activity; assay type: biochemical; settings: in vitro
SK-Br3 cells = assay: Breast cancer growth inhibitory activity (Cell-titer Glo, 72 h); assay type: cell-based; settings: Homo sapiens, SK-BR-3; 72 hours; read-out: SK-Br3 (GI50/μM)
Experimental: (§1) Breast cancer cells in a culture solution (100 μL volume/well, 2,500 SK-Br3 cells/well, 1,000 HCC-1954 cells/well) were seeded into a tissue culture-treated 96-well plate and cultured in a cell incubator for 24 hours. […] Cell-titer Glo™ reagent (50 μL of a 5-fold diluted solution, Promega) was added to each well, and luminescence signals were measured using an Envision™ plate reader (PerkinElmer, USA). Titration curve fitting and IC50 values were generated using Prism 7.0 s/w (GraphPad, San Diego, USA).

HCC1954 cells = assay: as above; assay type: cell-based; settings: Homo sapiens, 72 hours, read-out: HCC1954 (GI50/μM)
Experimental: as §1

Sequence of CDK12/CyclinK (Q9NYV4 whole entry): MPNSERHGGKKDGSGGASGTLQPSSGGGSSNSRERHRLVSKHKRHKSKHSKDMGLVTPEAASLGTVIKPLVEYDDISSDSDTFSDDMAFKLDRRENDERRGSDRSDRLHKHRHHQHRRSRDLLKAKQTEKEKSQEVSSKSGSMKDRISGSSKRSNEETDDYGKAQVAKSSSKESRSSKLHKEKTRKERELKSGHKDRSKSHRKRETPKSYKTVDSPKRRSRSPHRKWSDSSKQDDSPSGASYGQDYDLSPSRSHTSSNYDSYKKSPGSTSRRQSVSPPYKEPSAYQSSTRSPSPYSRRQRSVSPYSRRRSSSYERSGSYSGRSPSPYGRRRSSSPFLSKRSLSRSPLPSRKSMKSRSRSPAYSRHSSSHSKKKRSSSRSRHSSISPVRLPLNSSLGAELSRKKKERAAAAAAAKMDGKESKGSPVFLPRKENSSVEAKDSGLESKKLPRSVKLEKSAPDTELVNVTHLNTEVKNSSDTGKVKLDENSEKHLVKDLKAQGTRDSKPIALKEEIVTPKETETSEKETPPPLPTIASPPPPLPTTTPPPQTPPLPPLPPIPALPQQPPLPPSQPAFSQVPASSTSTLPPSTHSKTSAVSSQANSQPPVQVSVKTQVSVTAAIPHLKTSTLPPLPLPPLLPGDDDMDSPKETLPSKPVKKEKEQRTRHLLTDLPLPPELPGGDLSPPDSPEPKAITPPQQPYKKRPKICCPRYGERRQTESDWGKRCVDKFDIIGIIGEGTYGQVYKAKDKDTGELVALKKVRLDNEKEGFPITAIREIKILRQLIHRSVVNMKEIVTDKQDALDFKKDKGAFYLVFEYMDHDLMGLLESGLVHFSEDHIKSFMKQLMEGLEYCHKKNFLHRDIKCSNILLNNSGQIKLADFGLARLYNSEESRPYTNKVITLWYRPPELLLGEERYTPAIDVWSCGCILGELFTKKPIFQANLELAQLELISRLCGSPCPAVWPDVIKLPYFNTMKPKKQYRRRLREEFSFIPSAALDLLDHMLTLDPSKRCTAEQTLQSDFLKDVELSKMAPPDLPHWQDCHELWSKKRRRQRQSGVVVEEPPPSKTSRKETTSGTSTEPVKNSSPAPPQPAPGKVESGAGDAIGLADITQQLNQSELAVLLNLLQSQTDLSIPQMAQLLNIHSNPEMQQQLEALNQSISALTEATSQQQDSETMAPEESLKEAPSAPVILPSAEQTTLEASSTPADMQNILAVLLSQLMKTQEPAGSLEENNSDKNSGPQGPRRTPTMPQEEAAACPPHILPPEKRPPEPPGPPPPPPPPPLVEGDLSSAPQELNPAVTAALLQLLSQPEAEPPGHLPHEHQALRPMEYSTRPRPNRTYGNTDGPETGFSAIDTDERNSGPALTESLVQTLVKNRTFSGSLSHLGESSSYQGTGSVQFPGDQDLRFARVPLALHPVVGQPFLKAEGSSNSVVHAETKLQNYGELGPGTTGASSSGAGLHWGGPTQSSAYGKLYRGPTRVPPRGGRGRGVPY
Sequence of CDK12/CyclinK (O75909 whole entry partner): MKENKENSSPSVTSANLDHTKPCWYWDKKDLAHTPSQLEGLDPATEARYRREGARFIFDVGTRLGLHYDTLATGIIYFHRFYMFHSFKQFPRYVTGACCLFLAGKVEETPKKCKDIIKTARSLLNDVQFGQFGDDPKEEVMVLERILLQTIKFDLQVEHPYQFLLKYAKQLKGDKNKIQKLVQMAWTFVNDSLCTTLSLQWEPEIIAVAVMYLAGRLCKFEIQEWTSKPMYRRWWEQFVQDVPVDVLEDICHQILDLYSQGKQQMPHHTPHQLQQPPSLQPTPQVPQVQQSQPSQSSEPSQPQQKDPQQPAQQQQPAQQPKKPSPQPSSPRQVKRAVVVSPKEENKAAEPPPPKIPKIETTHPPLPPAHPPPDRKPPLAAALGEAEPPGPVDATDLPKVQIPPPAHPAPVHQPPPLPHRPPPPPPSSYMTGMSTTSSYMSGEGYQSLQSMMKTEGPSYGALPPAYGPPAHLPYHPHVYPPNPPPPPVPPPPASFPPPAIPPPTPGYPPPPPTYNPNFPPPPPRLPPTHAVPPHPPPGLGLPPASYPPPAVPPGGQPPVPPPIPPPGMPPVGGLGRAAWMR

| Structure (SMILES) | IC50 (CDK12/CyclinK) [µM] | GI50 (SK-Br3 cells) [µM] | GI50 (HCC1954 cells) [µM] |
| --- | --- | --- | --- |
| Cc1ccc(-c2ccc(CNc3nc(-c4cccnc4)nc4c3ncn4C(C)C)nc2)cn1 [Example 3, 9-isopropyl-N-((6′-methyl-[3,3′-bipyridin]-6-yl)methyl)-2-(pyridin-3-yl)-9H-purin-6-amine] | 1.11 | 23.1 | 13.6 |
| CC(C)n1cnc2c(NCc3ccc(-c4cccnc4)nc3)nc(-c3cccnc3)nc21 [Example 6, N-([2,3′-bipyridin]-5-ylmethyl)-9-isopropyl-2-(pyridin-3-yl)-9H-purin-6-amine] | 0.221 | 0.416 | 0.248 |
| CC(C)n1cnc2c(NCc3ccc(-c4ccncc4)nc3)nc(-c3cccnc3)nc21 [Example 7, N-([2,4′-bipyridin]-5-ylmethyl)-9-isopropyl-2-(pyridin-3-yl)-9H-purin-6-amine] | 0.153 | 0.801 | 0.5 |
| CC(C)n1cnc2c(NCc3ccc(-c4cccnc4)nc3)nc(-c3ccccc3)nc21 [Example 8, N-([2,3′-bipyridin]-5-ylmethyl)-9-isopropyl-2-phenyl-9H-purin-6-amine] | 0.623 | 1.68 | 1.12 |
| CC(C)n1cnc2c(NCc3ccc(-c4cccnc4)nc3)nc(-c3cccc(C(N)=O)c3)nc21 [Example 9, 3-(6-(([2,3′-bipyridin]-5-ylmethyl)amino)-9-isopropyl-9H-purin-2-yl)benzamide] | 0.504 | 1.6 | 1.12 |
| CC(C)n1cnc2c(NCc3ccc(-c4cccnc4)nc3)nc(-c3ccc(C(N)=O)cc3)nc21 [Example 10, 4-(6-(([2,3′-bipyridin]-5-ylmethyl)amino)-9-isopropyl-9H-purin-2-yl)benzamide] | 0.484 | 3.7 | 3.14 |
| CC(C)n1cnc2c(NCc3ccc(-c4cccnc4)nc3)nc(-c3ccc4[nH]ccc4c3)nc21 [Example 11, N-([2,3′-bipyridin]-5-ylmethyl)-2-(1H-indol-5-yl)-9-isopropyl-9H-purin-6-amine] | 0.155 | 1.5 | 1.36 |
| CC(C)n1cnc2c(NCc3ccc(-c4cccnc4)nc3)nc(-c3ccc4cn[nH]c4c3)nc21 [Example 13, N-([2,3′-bipyridin]-5-ylmethyl)-2-(1H-indazol-6-yl)-9-isopropyl-9H-purin-6-amine] | 0.179 | 0.597 | 0.4 |
| CC(C)n1cnc2c(NCc3ccc(-c4cccnc4)nc3)nc(-c3ccc4[nH]ncc4c3)nc21 [Example 14, N-([2,3′-bipyridin]-5-ylmethyl)-2-(1H-indazol-5-yl)-9-isopropyl-9H-purin-6-amine] | 0.104 | 2.6 | 1.88 |
| CC(C)n1cnc2c(NCc3ccc(-c4cccnc4)nc3)nc(-c3cnc4ccccc4c3)nc21 [Example 16, N-([2,3′-bipyridin]-5-ylmethyl)-9-isopropyl-2-(quinolin-3-yl)-9H-purin-6-amine] | 0.486 | 3.71 | 4.23 |
| Cc1ccc(-c2nc(NCc3ccc(-c4cccnc4)nc3)c3ncn(C(C)C)c3n2)cn1 [Example 17, N-([2,3′-bipyridin]-5-ylmethyl)-9-isopropyl-2-(6-methylpyridin-3-yl)-9H-purin-6-amine] | 0.09 | 1.25 | 0.937 |
| CC(C)n1cnc2c(NCc3ccc(-c4cccnc4)nc3)nc(-c3ccc(N)nc3)nc21 [Example 18, N-([2,3′-bipyridin]-5-ylmethyl)-2-(6-aminopyridin-3-yl)-9-isopropyl-9H-purin-6-amine] | 0.065 | 0.375 | 0.279 |
| CC(C)n1cnc2c(NCc3ccc(-c4cccnc4)nc3)nc(-c3ccnc(N)c3)nc21 [Example 19, N-([2,3′-bipyridin]-5-ylmethyl)-2-(2-aminopyridin-4-yl)-9-isopropyl-9H-purin-6-amine] | 0.094 | – | 0.362 |
| CC(C)n1cnc2c(NCc3ccc(-c4cccnc4)nc3)nc(-c3cncnc3)nc21 [Example 20, N-([2,3′-bipyridin]-5-ylmethyl)-9-isopropyl-2-(pyrimidin-5-yl)-9H-purin-6-amine] | 0.051 | 0.314 | 0.308 |
| CC(C)n1cnc2c(NCc3ccc(-c4cccnc4)nc3)nc(-c3cnc(N)nc3)nc21 [Example 21, N-([2,3′-bipyridin]-5-ylmethyl)-2-(2-aminopyrimidin-5-yl)-9-isopropyl-9H-purin-6-amine] | 0.087 | – | – |
| CC(C)n1cnc2c(NCc3ccc(-c4cccnc4)nc3)nc(-c3ccn[nH]3)nc21 [Example 22, N-([2,3′-bipyridin]-5-ylmethyl)-9-isopropyl-2-(1H-pyrazol-5-yl)-9H-purin-6-amine] | 0.501 | 1.72 | – |
| CC(C)n1cnc2c(NCc3ccc(-c4cccnc4)nc3)nc(-c3cn[nH]c3)nc21 [Example 23, N-([2,3′-bipyridin]-5-ylmethyl)-9-isopropyl-2-(1H-pyrazol-4-yl)-9H-purin-6-amine] | 1.43 | 1.99 | – |
| CC(C)n1cnc2c(NCc3ccc(-c4cccnc4)nc3)nc(-c3ccccc3N)nc21 [Example 25, N-([2,3′-bipyridin]-5-ylmethyl)-2-(2-aminophenyl)-9-isopropyl-9H-purin-6-amine] | 0.619 | 2.58 | 2.62 |
| CC(C)n1cnc2c(NCc3ccc(-c4cccnc4)nc3)nc(-c3cccc(N)c3)nc21 [Example 26, N-([2,3′-bipyridin]-5-ylmethyl)-2-(3-aminophenyl)-9-isopropyl-9H-purin-6-amine] | 0.17 | 0.615 | 0.34 |

The next lines start with the values.

| IC50 (CDK12/CyclinK) [µM] | GI50 (SK-Br3 cells) [µM] | GI50 (HCC1954 cells) [µM] | Structure (SMILES) |
| --- | --- | --- | --- |
| 0.15 | 0.813 | – | CC(C)n1cnc2c(NCc3ccc(-c4cccnc4)nc3)nc(-c3ccc(N)cc3)nc21 [Example 27, N-([2,3′-bipyridin]-5-ylmethyl)-2-(4-aminophenyl)-9-isopropyl-9H-purin-6-amine] |
| 0.147 | 1.75 | 1.31 | CC(C)n1cnc2c(NCc3ccc(-c4cccnc4)nc3)nc(-c3ccc(F)nc3)nc21 [Example 28, N-([2,3′-bipyridin]-5-ylmethyl)-2-(6-fluoropyridin-3-yl)-9-isopropyl-9H-purin-6-amine] |
| 0.164 | 1.72 | – | CC(C)n1cnc2c(NCc3ccc(-c4cccnc4)nc3)nc(-c3ccnc(F)c3)nc21 [Example 29, N-([2,3′-bipyridin]-5-ylmethyl)-2-(2-fluoropyridin-4-yl)-9-isopropyl-9H-purin-6-amine] |
| 0.257 | 0.724 | – | CC(C)n1cnc2c(NCc3ccc(-c4cccnc4)nc3)nc(-c3cccc(NCCCO)c3)nc21 [Example 33, 3-((3-(6-(([2,3′-bipyridin]-5-ylmethyl)amino)-9-isopropyl-9H-purin-2-yl)phenyl)amino)propan-1-ol] |
| 0.304 | 1.18 | – | CC(C)n1cnc2c(NCc3ccc(-c4cccnc4)nc3)nc(-c3ccc(NCCCO)nc3)nc21 [Example 36, 3-((5-(6-(([2,3′-bipyridin]-5-ylmethyl)amino)-9-isopropyl-9H-purin-2-yl)pyridin-2-yl)amino)propan-1-ol] |
| 0.086 | 0.47 | – | CC(C)n1cnc2c(NCc3ccc(-c4cccnc4)nc3)nc(-c3ccnc(NCCO)c3)nc21 [Example 37, 2-((4-(6-(([2,3′-bipyridin]-5-ylmethyl)amino)-9-isopropyl-9H-purin-2-yl)pyridin-2-yl)amino)ethan-1-ol] |
| 0.113 | 0.479 | – | CC(C)n1cnc2c(NCc3ccc(-c4cccnc4)nc3)nc(-c3ccnc(NCCCO)c3)nc21 [Example 38, 3-((4-(6-(([2,3′-bipyridin]-5-ylmethyl)amino)-9-isopropyl-9H-purin-2-yl)pyridin-2-yl)amino)propan-1-ol] |
| 1.53 | – | – | COc1cncc(-c2nc(NCc3ccc(-c4ccccn4)cn3)c3ncn(C(C)C)c3n2)c1 [Example 44, N-([2,3′-bipyridin]-6′-ylmethyl)-9-isopropyl-2-(5-methoxypyridin-3-yl)-9H-purin-6-amine] |
| 0.221 | 0.169 | – | CC(C)n1cnc2c(NCc3ccc(-c4ccccn4)cn3)nc(-c3ccc(N)nc3)nc21 [Example 45, N-([2,3′-bipyridin]-6′-ylmethyl)-2-(6-aminopyridin-3-yl)-9-isopropyl-9H-purin-6-amine] |
| 0.016 | 0.217 | – | CCn1cnc2c(NCc3ccc(-c4cccnc4)nc3)nc(-c3cccnc3)nc21 [Example 46, N-([2,3′-bipyridin]-5-ylmethyl)-9-ethyl-2-(pyridin-3-yl)-9H-purin-6-amine] |
| > 10 | – | 44.2 | c1cncc(-c2ccc(CNc3nc(-c4cccnc4)nc4c3ncn4C3CCOCC3)cn2)c1 [Example 48, N-([2,3′-bipyridin]-5-ylmethyl)-2-(pyridin-3-yl)-9-(tetrahydro-2H-pyran-4-yl)-9H-purin-6-amine] |
| – | – | 0.635 | CCn1cnc2c(NCc3ccc(-c4ccnc(C)c4)nc3)nc(-c3ccc4[nH]c(=O)[nH]c4c3)nc21 [Example 52, 5-(9-ethyl-6-(((2′-methyl-[2,4′-bipyridin]-5-yl)methyl)amino)-9H-purin-2-yl)-1,3-dihydro-2H-benzo[d]imidazol-2-one] |
| – | 0.066 | 0.085 | CCn1cnc2c(NCc3ccc(-n4nc(C)cc4C)nc3)nc(-c3cnc(N)nc3)nc21 [Example 62, 2-(2-aminopyrimidin-5-yl)-N-((6-(3,5-dimethyl-1H-pyrazol-1-yl)pyridin-3-yl)methyl)-9-ethyl-9H-purin-6-amine] |
| – | – | 0.168 | CC(C)n1cnc2c(NCc3ccc(-c4cccnc4)nc3)nc(N3CCOC[C@H]3CCO)nc21 [Example 63, (R)-2-(4-(6-(([2,3′-bipyridin]-5-ylmethyl)amino)-9-isopropyl-9H-purin-2-yl)morpholin-3-yl)ethan-1-ol] |
